Experimental data reported in US20240279228A1, “NOVEL SALTS AND CRYSTALS” (INTRA-CELLULAR THERAPIES, INC., priority 2021, published 2024).
Structures can show the parent of a compound that is named as a salt. Where two headings read alike, the source gives them in different places. One block for each compound: values may come before it.

Assays:
[1] = Colour and chemical stability of the solid salt in air; format: physicochemical; details: for Colorization: tosylate salt product of process experiment
[2] = Hygroscopicity of Compound A free base; format: physicochemical
[3] = Solubility of Compound A free base in solvents; format: physicochemical
[4] = Decomposition of salt crystals by NMR; format: physicochemical; details: crystals from salt screening
Protocol: Further experiments are performed using some of the successful acid/solvent/method conditions from Example 1, with variations in the solvent volume and/or material concentrations and/or changes to the molar ratio of Compound A free base to acid (1:1.2, 1:1.5 or 1:2). Some experiments are further repeated at a 500 mg scale for confirmation of the results, including additional analysis, including 1H-NMR, DSC/TGA, and/or FTIR.

[5] = Solubility of the salts in water; format: physicochemical; details: salt
[6] = solid tosylate salt of WO2020/131895, on standing; cited from earlier work

Colorization [1]: No
Structure (SMILES): O=C1CN2c3c(cccc3[C@@H]3CN(CCCOc4ccc(F)cc4)CC[C@@H]32)N1 [Compound 5-1]

Colorization [1]: No
Structure (SMILES): O=C1CN2c3c(cccc3[C@@H]3CN(CCCOc4ccc(F)cc4)CC[C@@H]32)N1 [Compound 5-2]

Colorization [1]: No
Structure (SMILES): O=C1CN2c3c(cccc3[C@@H]3CN(CCCOc4ccc(F)cc4)CC[C@@H]32)N1 [Compound 5-3]

Colorization [1]: No
Structure (SMILES): O=C1CN2c3c(cccc3[C@@H]3CN(CCCOc4ccc(F)cc4)CC[C@@H]32)N1 [Compound 5-4]

Colorization [1]: Slight
Structure (SMILES): O=C1CN2c3c(cccc3[C@@H]3CN(CCCOc4ccc(F)cc4)CC[C@@H]32)N1 [Compound 5-5]

Second part, the compound before the results:

Structure (SMILES): O=C1CN2c3c(cccc3[C@@H]3CN(CCCOc4ccc(F)cc4)CC[C@@H]32)N1 [Compound 3-2]
Colorization [1]: Yes

Structure (SMILES): O=C1CN2c3c(cccc3[C@@H]3CN(CCCOc4ccc(F)cc4)CC[C@@H]32)N1 [Compound A, (6bR,10aS)-8-(3-(4-fluorophenoxy)propyl)-6b,7,8,9,10,10a-hexahydro-1H-pyrido[3′,4′:4,5]pyrrolo[1,2,3-de]quinoxalin-2(3H)-one]
Hygroscopicity [2]: slightly hygroscopic
Solubility (general) ([3]; free base form): very poor solubility
Solubility in DMSO ([3]; free base, DMSO): freely soluble
Solubility in anisole ([3]; free base, anisole): sparingly soluble
Solubility in ethyl salicylate ([3]; free base, ethyl salicylate): sparingly soluble
Solubility in most organic solvents and water ([3]; free base, most organic solvents and water): less than sparingly soluble
solubility ([3]; free base, water, read-out: Solubility in water): < 11 mg/mL
solubility ([3]; organic solvent or mixture, free base, 2-butanol, read-out: Solubility in 2-butanol): < 11 mg/mL
solubility ([3]; organic solvent or mixture, free base, cyclohexane, read-out: Solubility in cyclohexane): < 11 mg/mL
solubility ([3]; organic solvent or mixture, free base, ethyl acetate, read-out: Solubility in ethyl acetate): < 11 mg/mL
solubility ([3]; organic solvent or mixture, free base, heptane, read-out: Solubility in heptane): < 11 mg/mL
solubility ([3]; organic solvent or mixture, free base, methanol, read-out: Solubility in methanol): < 11 mg/mL

Structure (SMILES): O=C1CN2c3c(cccc3[C@@H]3CN(CCCOc4ccc(F)cc4)CC[C@@H]32)N1 [Example 3]
Colour change of the powder ([1]; at room temperature): slowly turns purple

Structure (SMILES): O=C1CN2c3c(cccc3[C@@H]3CN(CCCOc4ccc(F)cc4)CC[C@@H]32)N1 [hydrochloride crystals]
Decomposition by NMR [4]: show decomposition

Structure (SMILES): O=C1CN2c3c(cccc3[C@@H]3CN(CCCOc4ccc(F)cc4)CC[C@@H]32)N1 [oxalate salt]
Solubility in water [5]: 0.2 to 0.3 mg/mL

Structure (SMILES): O=C1CN2c3c(cccc3[C@@H]3CN(CCCOc4ccc(F)cc4)CC[C@@H]32)N1 [tosylate salt]
Discoloration on standing [6]: discolors on standing
Solubility in water [5]: 1.2 to 1.7 mg/mL
